Article PMC8605241, “Coevolution of the bacterial pheromone ComS and sensor ComR fine-tunes natural transformation in streptococci” (The Journal of Biological Chemistry, 2021)
Residues, ends and D or L forms follow the SMILES beside them.

What was measured:
ComRSth WT = ComRSth WT (Streptococcus thermophilus, UniProt A0A1L1QK15); assay type: cell-based; conditions: for EC50: read-out: EC50 of PcomS activity (maximum specific luciferase activity), synthetic 8-aa peptide added to S. thermophilus ΔcomS reporter strain (PcomS-luxAB), Hill fit, mean ± SD of at least three independent replicates, SD; for effect of XIP-5 substitution on activation (titration of synthetic XIPSth variants): compared with XIPSth WT (A5), PcomS-luxAB
Procedure: (§1) Luciferase assays were performed as previously described ([19]). Overnight precultures were diluted to a final OD600 of 0.05 and culture samples incubated in a sterile covered white microplate with a transparent bottom (Greiner). Growth and luciferase activity (expressed in relative light units [RLUs]) of the cultures were monitored after addition or in absence of synthetic XIP peptide at 10 min intervals during at least 8 h in a multiwell plate reader (Hidex Sense, Hidex). When peptides were titrated, 0, 0.78, 1.56, 3.12, 6.25, 12.5, 25, 50, 100, and 1000 nM were added to the medium.

ComRSth [1] = molecular target: T1, ComRSth (Streptococcus thermophilus, UniProt A0A1L1QK15); assay: biochemical; conditions: SD
Procedure: In the case of competition assays, a fixed concentration of ComR (250 nM) and FITC N-labeled XIP peptide (30 nM) were incubated with twofold serial dilutions of unlabeled XIP variant (initial concentration of 5 μM). Plots were fitted by using GraphPad Prisma software to calculate IC50 values (half-maximal inhibitory peptide concentration).

ComRSve WT = assay: PcomS-luxAB luciferase reporter assay, S. thermophilus strain with ComRSth replaced by ComRSve; assay type: cell-based, Streptococcus vestibularis; conditions: reporter strain carrying ComRSve; for decrease of activation compared with wild-type XIPSve: synthetic peptide
Procedure: as §1

ComR-F171A = assay: PcomS-luxAB luciferase reporter assay, ComR-F171A strain; assay type: cell-based, Streptococcus thermophilus; conditions: substitution added to XIP-L1A; ComR-F171A mutant strain
Procedure: Luciferase assays were performed as previously described ([19]). Overnight precultures were diluted to a final OD600 of 0.05 and culture samples incubated in a sterile covered white microplate with a transparent bottom (Greiner). Growth and luciferase activity (expressed in relative light units [RLUs]) of the cultures were monitored after addition or in absence of synthetic XIP peptide at 10 min intervals during at least 8 h in a multiwell plate reader (Hidex Sense, Hidex). When peptides were titrated, 0, 0.78, 1.56, 3.12, 6.25, 12.5, 25, 50, 100, and 1000 nM were added to the medium. In order to calculate EC50 values (peptide concentration for a half maximum response), maximum luciferase activity values were fitted to Hill equation: L=Lmax×[XIP]^n/(EC50)^n+[XIP]^n where L is the luciferase activity, [XIP] is the XIP concentration, and n is the Hill coefficient. Curves were fitted with the GraphPad Prism software v.9.0.1 (GraphPad Software, Inc).

[2] = molecular target: FITC N-labeled XIP-A5M peptide (9 aa) (Streptococcus thermophilus); assay: fluorescence polarisation; 30 nM FITC N-labeled 9-aa XIP peptide, threefold serial dilutions of purified ComR from 1 uM, 10 min at 30 °C, 96-well plates; EC50 by Hill fit
ComRSth [3] = molecular target: T1, ComRSth; assay: Single-molecule force spectroscopy (AFM); assay type: binding; conditions: polyG-linked peptide grafted on AFM tip, ComRSth on gold-coated coverslip
Procedure: Gold-coated glass coverslips and cantilevers (OMCL-TR4, Olympus Ltd; nominal spring constant ∼0.02 N m^−1) were immersed overnight in an ethanol solution containing 1 mM of 10% 16- […]/90% 1-mercapto-1-undecanol (Sigma), rinsed with ethanol and dried with N2. Substrates and cantilevers were then immersed for 30 min into a solution containing 10 mg ml^−1 N-hydroxysuccinimide (NHS) and 25 mg ml^−1 1-ethyl-3-(3-dimethylaminopropyl)-carbodiimide (EDC) (Sigma), rinsed with Ultrapure water (ELGA LabWater), incubated with 0.1 mg ml^−1 ComR or polyG-XIPSth, polyG-XIP-A5M, or polyG-XIPSve peptides for 1 h, rinsed further with PBS buffer, and then immediately used without dewetting.
For experiments of single-molecule force spectroscopy, ComR-functionalized surfaces and functionalized cantilevers with polyG-peptides were prepared as described above. Measurements were performed at room temperature in PBS with a Force Robot 300 AFM (JPK Instruments). Multiple (32 × 32) force–distance curves were recorded on areas of 500 by 500 nm^2 with an applied force of 250 pN, a constant approach, and retraction speed of 1000 nm s^−1. […] The spring constants of the cantilevers were measured by the thermal noise method ([50]). Data were analyzed with the data processing software from JPK Instruments.

[4] = molecular target: ComRSth-StreptagII protein (Streptococcus thermophilus ComR) (Streptococcus thermophilus)
[5] = molecular target: T2, ComRSth-StreptagII protein (Streptococcus thermophilus ComR) (Streptococcus thermophilus); assay: FP; competition with FITC-XIP-A5M
T2 chain: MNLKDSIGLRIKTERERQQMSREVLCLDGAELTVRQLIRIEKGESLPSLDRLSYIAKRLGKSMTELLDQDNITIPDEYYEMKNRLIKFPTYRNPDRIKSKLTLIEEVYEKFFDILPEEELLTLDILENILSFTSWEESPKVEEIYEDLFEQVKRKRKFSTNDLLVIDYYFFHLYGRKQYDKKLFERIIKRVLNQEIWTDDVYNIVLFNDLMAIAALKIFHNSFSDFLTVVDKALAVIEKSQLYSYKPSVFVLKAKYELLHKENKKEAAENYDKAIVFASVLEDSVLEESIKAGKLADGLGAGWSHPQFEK

With `CSCC[C@H](NC(=O)[C@H](Cc1ccccc1)NC(=O)[C@H](Cc1ccc(O)cc1)NC(=O)[C@@H]1CCCN1C(=O)[C@@H](N)C(C)C)C(=O)NCC(=O)N[C@@H](CS)C(=O)N[C@@H](CC(C)C)C(=O)O` [XIP-L1V-A5M] (H-VPYFMGCL-OH) the EC50 (ComRSth WT) was 1.36 ± 0.33 nM and the “EC50 compared with wild-type XIPSth” value (ComRSth WT; synthetic peptide, ΔcomS reporter strain, PcomS as proxy) was “approximately fourfold lower”.

In the case of `CC(C)C[C@H](NC(=O)[C@H](CS)NC(=O)CNC(=O)[C@H](C)NC(=O)[C@H](Cc1ccccc1)NC(=O)[C@H](Cc1ccc(O)cc1)NC(=O)[C@@H]1CCCN1C(=O)[C@@H](N)CC(C)C)C(=O)O` [XIPSth, reference compound] (H-LPYFAGCL-OH), the EC50 (ComRSth WT) is reported as 4.4 ± 1.12 nM and the IC50 (ComRSth [1]) is reported as 254 ± 49.7 nM.

APFFMIYY [XIPSve-V1A] was tested, and the “decrease of activation compared with wild-type XIPSve” value (ComRSve WT) was about 130 fold.

APYFMGCL [XIPSth-L1A-A5M] was tested, and the “increased activation (fold change in EC50) with XIP-L1A as reference” value (ComR-F171A) was 1.3 fold and the “increased activation (fold change in EC50) with XIP-L1A (A1–A5) as reference” value (ComRSth WT; substitution added to XIP-L1A, ComRSth WT reporter strain) was 10.4 fold.

“ComRSth-StreptagII protein (Streptococcus thermophilus ComR) (natural protein)” was tested, and the fold lower EC50 than FITC-XIPSth [2] was 2 fold.

With LPYFIGCL [XIP-A5I] the “effect of XIP-5 substitution on activation (titration of synthetic XIPSth variants)” value (ComRSth WT; ΔcomS reporter strain) was “improved transcriptional activation but at a lower level than A5M”.

For LPYFTGCL [XIP-A5T], the “effect of XIP-5 substitution on activation (titration of synthetic XIPSth variants)” value (ComRSth WT; ΔcomS reporter strain) was “neutral”.

In the case of “PFFMIYY [XIPSve-ΔV1, 7-aa XIPSve variant PFFMIYY]”, the “activation of ComRSve (in words)” value (ComRSve WT; synthetic 7-aa peptide) is reported as “completely abolished”.

PYFAGCL [XIPSth-ΔL1] was tested, and the “decrease of activity (fold less active)” value (ComRSth WT; synthetic 7-aa peptide, ComRSth WT reporter strain) was about 90 fold.

For VPFFAIYY [XIPSve-M5A], the “decrease of activation compared with wild-type XIPSve” value (ComRSve WT) was about 40 fold.

With VPFFMIYY [XIPSve] the “binding frequency / binding probability” value (ComRSth [3]) was about 2% and the “median binding (adhesion) force” value (ComRSth [3]; PBS, room temperature, about 1000 curves per surface) was 58 pN.

Work on XIP-L1A-A5M (synthetic octapeptide) yielded a P (comS)-luxAB luciferase reporter in S. thermophilus cells producing ComRSth WT; fold change in EC50 against the reference XIP-L1A (substitution A5M) [4] of 10.4 fold.

LPYFAGCL [XIPSth (Streptococcus thermophilus XIP, synthetic octapeptide)] showed a P (comS)-luxAB luciferase reporter in S. thermophilus cells producing ComRSth WT; fold change in EC50 against the reference XIP-L1A (substitution A1L) [4] of 2.7 fold and an IC50 [5] of 254 nM.

In the case of PYFAGCL [XIPSth-ΔL1 (7 aa)], the P (comS)-luxAB luciferase reporter in S. thermophilus cells producing ComRSth WT; activity against XIPSth WT (fold less active) [4] is reported as 90.
